Measured values taken from paper PMC11995724, “Antibiotic target discovery by integrated phenotypic and activity-based profiling of electrophilic fragments” (Cell chemical biology, 2025).

Test: in vitro
Settings: human, hek293t cells

Structure (SMILES) | viability at 48 h, 25 µM [%]
CC(C#N)Oc1ccc(C=C(C#N)C(=O)Nc2ccccc2Cl)cc1 (centres unmarked) [9-E05, N-(2-chlorophenyl)-2-cyano-3-[4-(1-cyanoethoxy)phenyl]prop-2-enamide] | 111
Cc1ccccc1C(C)NC(=O)C(C#N)=Cc1ccco1 (centres unmarked) [9-E06, 2-cyano-3-(furan-2-yl)-N-[1-(2-methylphenyl)ethyl]prop-2-enamide] | 107
Cc1nn(-c2ccccc2)c(C)c1C=C(C#N)C(=O)Nc1nccs1 [9-E07, 2-cyano-3-(3,5-dimethyl-1-phenyl-1H-pyrazol-4-yl)-N-(1,3-thiazol-2-yl)prop-2-enamide] | 119
COc1ccc2cc(C=C(C#N)C(=O)Nc3nccs3)ccc2c1 [9-E08, 2-cyano-3-(6-methoxynaphthalen-2-yl)-N-(1,3-thiazol-2-yl)prop-2-enamide] | 63.3
CCCCNC(=O)C(C#N)=Cc1cc(C)c(O)c(C)c1 [9-E09, N-butyl-2-cyano-3-(4-hydroxy-3,5-dimethylphenyl)prop-2-enamide] | 111
COc1ccc(C=C(C#N)C(=O)Nc2cccc3ccccc23)cc1 [9-E10, 2-cyano-3-(4-methoxyphenyl)-N-(naphthalen-1-yl)prop-2-enamide] | 105
CC(C)NC(=O)C(C#N)=Cc1ccc2c(c1)OCCO2 [9-E11, 2-cyano-3-(2,3-dihydro-1,4-benzodioxin-6-yl)-N-(propan-2-yl)prop-2-enamide] | 118
Cc1cccc(NC(=O)C(C#N)=Cc2ccc(F)cc2)c1 [9-E12, 2-cyano-3-(4-fluorophenyl)-N-(3-methylphenyl)prop-2-enamide] | 90.9
CC(C)NC(=O)C(C#N)=Cc1c(Cl)cccc1Cl [9-E13, 2-cyano-3-(2,6-dichlorophenyl)-N-(propan-2-yl)prop-2-enamide] | 87
N#CC(=Cc1ccc(N)cc1)C(=O)N1CCCC1 [9-E14, 3-(4-aminophenyl)-2-(pyrrolidine-1-carbonyl)prop-2-enenitrile] | 101
N#CC(=Cc1ccc(Cl)c([N+](=O)[O-])c1)C(=O)NCc1ccco1 [9-E15, 3-(4-chloro-3-nitrophenyl)-2-cyano-N-[(furan-2-yl)methyl]prop-2-enamide] | 6.64
N#CC(=Cc1ccco1)C(=O)Nc1ccc2nc(S)oc2c1 [9-E16, 2-cyano-3-(furan-2-yl)-N-(2-sulfanyl-1,3-benzoxazol-6-yl)prop-2-enamide] | 110
CCCCNC(=O)C(C#N)=Cc1cccs1 [9-E17, N-butyl-2-cyano-3-(thiophen-2-yl)prop-2-enamide] | 117
COc1cc(Cl)ccc1CNC(=O)C(C#N)=Cc1ccco1 [9-E18, N-[(4-chloro-2-methoxyphenyl)methyl]-2-cyano-3-(furan-2-yl)prop-2-enamide] | 109
Cc1ccc(C=C(C#N)C(=O)Nc2cc(Cl)ccc2Cl)s1 [9-E19, 2-cyano-N-(2,5-dichlorophenyl)-3-(5-methylthiophen-2-yl)prop-2-enamide] | 107
N#CC(=Cc1cnc2ccc(C#N)cn12)C(=O)Nc1ccc(F)cc1 [9-E20, 2-cyano-3-{6-cyanoimidazo[1,2-a]pyridin-3-yl}-N-(4-fluorophenyl)prop-2-enamide] | 99.4
Cc1ccccc1NC(=O)C(C#N)=Cc1ccc(N2CCCCC2)cc1 [9-E21, 2-cyano-N-(2-methylphenyl)-3-[4-(piperidin-1-yl)phenyl]prop-2-enamide] | 91.8
N#CC(=Cc1ccc(Cl)cc1)C(=O)Nc1ccc2c(c1)OCCO2 [9-E22, 3-(4-chlorophenyl)-2-cyano-N-(2,3-dihydro-1,4-benzodioxin-6-yl)prop-2-enamide] | 106
N#CC(=Cc1ccc(O)cc1)C(=O)Nc1cc(Cl)ccc1Cl [9-F03, 2-cyano-N-(2,5-dichlorophenyl)-3-(4-hydroxyphenyl)prop-2-enamide] | 87
COCC(C)NC(=O)C(C#N)=Cc1cc2cc(F)ccc2o1 (centres unmarked) [9-F04, 2-cyano-3-(5-fluoro-1-benzofuran-2-yl)-N-(1-methoxypropan-2-yl)prop-2-enamide] | 99.8
C=CCNC(=O)C(C#N)=Cc1ccc(C)s1 [9-F05, 2-cyano-3-(5-methylthiophen-2-yl)-N-(prop-2-en-1-yl)prop-2-enamide] | 108
N#CC(=Cc1cccc(Oc2ccccc2)c1)C(=O)N1CCCC1 [9-F06, 3-(3-phenoxyphenyl)-2-(pyrrolidine-1-carbonyl)prop-2-enenitrile] | 46.3
CCn1nc(C)c(C=C(C#N)C(=O)Nc2ccccc2Cl)c1C [9-F07, N-(2-chlorophenyl)-2-cyano-3-(1-ethyl-3,5-dimethyl-1H-pyrazol-4-yl)prop-2-enamide] | 110
N#CC(=CC1=Cc2ccccc2OC1)C(=O)NCc1ccccc1 [9-F08, N-benzyl-3-(2H-chromen-3-yl)-2-cyanoprop-2-enamide] | 114
COCC(C)NC(=O)C(C#N)=Cc1cccc(F)c1F (centres unmarked) [9-F09, 2-cyano-3-(2,3-difluorophenyl)-N-(1-methoxypropan-2-yl)prop-2-enamide] | 114

Structure (SMILES) | viability at 48 h, 25 µM [%]
COc1ccc(C=C(C#N)C(=O)Nc2ccc(C(=O)O)cc2)cc1O [9-F10, 4-[2-cyano-3-(3-hydroxy-4-methoxyphenyl)prop-2-enamido]benzoic acid] | 120
Cc1nn(C)c(C)c1C=C(C#N)C(=O)Nc1ccccc1Cl [9-F11, N-(2-chlorophenyl)-2-cyano-3-(1,3,5-trimethyl-1H-pyrazol-4-yl)prop-2-enamide] | 110
CC(=Cc1ccccc1)C=C(C#N)C(=O)NC1CC1 [9-F12, 2-cyano-N-cyclopropyl-4-methyl-5-phenylpenta-2,4-dienamide] | 92.3
N#CC(=Cc1ccccc1Cl)C(=O)NCc1ccccc1 [9-F13, N-benzyl-3-(2-chlorophenyl)-2-cyanoprop-2-enamide] | 80.5
CC(=O)Nc1ccsc1C=C(C#N)C(=O)Nc1ccc(F)cc1 [9-F14, 2-cyano-3-(3-acetamidothiophen-2-yl)-N-(4-fluorophenyl)prop-2-enamide] | 98.4
N#CC(=Cc1sc2ccccc2c1Cl)C(=O)Nc1nccs1 [9-F15, 3-(3-chloro-1-benzothiophen-2-yl)-2-cyano-N-(1,3-thiazol-2-yl)prop-2-enamide] | 117
N#CC(=Cc1ccco1)C(=O)NCc1ccc(-c2cccnc2)cc1 [9-F16, 2-cyano-3-(furan-2-yl)-N-{[4-(pyridin-3-yl)phenyl]methyl}prop-2-enamide] | 100
N#CC(=Cc1ccc(N2CCOCC2)cc1)C(=O)Nc1nccs1 [9-F17, 2-cyano-3-[4-(morpholin-4-yl)phenyl]-N-(1,3-thiazol-2-yl)prop-2-enamide] | 95.6
CNC(=O)Cn1ccc2ccc(NC(=O)C(C#N)=Cc3ccco3)cc21 [9-F18, 2-cyano-3-(furan-2-yl)-N-{1-[(methylcarbamoyl)methyl]-1H-indol-6-yl}prop-2-enamide] | 109
COc1ccc(NC(=O)C(C#N)=Cc2ccco2)cc1 [9-F19, 2-cyano-3-(furan-2-yl)-N-(4-methoxyphenyl)prop-2-enamide] | 94.6
N#CC(=Cc1ccc(Oc2cnccn2)cc1)C(=O)NC1CCCC1 [9-F20, 2-cyano-N-cyclopentyl-3-[4-(pyrazin-2-yloxy)phenyl]prop-2-enamide] | 95.3
N#CC(=Cc1cccc(O)c1)C(=O)NCc1ccco1 [9-F21, 2-cyano-N-[(furan-2-yl)methyl]-3-(3-hydroxyphenyl)prop-2-enamide] | 119
COc1cc(C=C(C#N)C(=O)Nc2cccc3ncccc23)ccc1O [9-F22, 2-cyano-3-(4-hydroxy-3-methoxyphenyl)-N-(quinolin-5-yl)prop-2-enamide] | 112
CCCNC(=O)C(C#N)=Cc1ccns1 [9-G03, 2-cyano-N-propyl-3-(1,2-thiazol-5-yl)prop-2-enamide] | 128
N#CC(=Cc1ccccc1O)C(=O)Nc1cccc2ncccc12 [9-G04, 2-cyano-3-(2-hydroxyphenyl)-N-(quinolin-5-yl)prop-2-enamide] | 123
N#CC(=Cc1cccc2c1OCCCO2)C(=O)NCc1ccccc1 [9-G05, N-benzyl-2-cyano-3-(3,4-dihydro-2H-1,5-benzodioxepin-6-yl)prop-2-enamide] | 114
CCOc1cc(C=C(C#N)C(=O)Nc2cccc(C)c2)ccc1O [9-G06, 2-cyano-3-(3-ethoxy-4-hydroxyphenyl)-N-(3-methylphenyl)prop-2-enamide] | 105
CCCn1c(C)cc(C=C(C#N)C(=O)Nc2ccc3c(c2)OCO3)c1C [9-G07, N-(1,3-dioxaindan-5-yl)-2-cyano-3-(2,5-dimethyl-1-propyl-1H-pyrrol-3-yl)prop-2-enamide] | 100
COc1cccc(C=C(C#N)C(=O)Nc2ccccc2C(=O)O)c1 [9-G08, 2-[2-cyano-3-(3-methoxyphenyl)prop-2-enamido]benzoic acid] | 102
COc1ccc(NC(=O)C(C#N)=Cc2c(Cl)nc3ccccn23)cc1 [9-G09, 3-{2-chloroimidazo[1,2-a]pyridin-3-yl}-2-cyano-N-(4-methoxyphenyl)prop-2-enamide] | 121
N#CC(=Cc1ccc(O)c([N+](=O)[O-])c1)C(=O)Nc1ccccc1C(=O)O [9-G10, 2-[2-cyano-3-(4-hydroxy-3-nitrophenyl)prop-2-enamido]benzoic acid] | 118
CCCCNC(=O)C(C#N)=Cc1ccc2c(c1)OCCO2 [9-G11, N-butyl-2-cyano-3-(2,3-dihydro-1,4-benzodioxin-6-yl)prop-2-enamide] | 106
COc1cc(C=C(C#N)C(=O)NC2CC2)ccc1O [9-G12, 2-cyano-N-cyclopropyl-3-(4-hydroxy-3-methoxyphenyl)prop-2-enamide] | 110
N#CC(=Cc1ccc(Cl)cc1)C(=O)NCc1ccccc1 [9-G13, N-benzyl-3-(4-chlorophenyl)-2-cyanoprop-2-enamide] | 104
COc1ccc(C=C(C#N)C(=O)Nc2ccc(C(=O)O)cc2)cc1C [9-G14, 4-[2-cyano-3-(4-methoxy-3-methylphenyl)prop-2-enamido]benzoic acid] | 108
